Results reported in patent US6245780A, “Tetrahydroisoquinolinyl-indole derivatives for the treatment of depression” (American Home Products Corp, priority 2000, dated 2001).
pKi: −log10 of the molar value. Where two headings read alike, the source gives them in different places.

Tests used:
[1] = target: T1, human 5-HT1A receptor (Homo sapiens, UniProt P08908); experiment: human 5-HT1A receptor binding, [3H]8-OH-DPAT radioligand, membranes of 5-HT1A.CHO cells; conditions: for inhibition at 1 µM: 1 uM compound, value in parentheses, read-out: 5-HT1A % inh @ 1 uM
T1 construct: expressed in transfected cells; host or cells: Chinese hamster ovary cells (5-HT1A.CHO)
T1 sequence (P08908 1-422): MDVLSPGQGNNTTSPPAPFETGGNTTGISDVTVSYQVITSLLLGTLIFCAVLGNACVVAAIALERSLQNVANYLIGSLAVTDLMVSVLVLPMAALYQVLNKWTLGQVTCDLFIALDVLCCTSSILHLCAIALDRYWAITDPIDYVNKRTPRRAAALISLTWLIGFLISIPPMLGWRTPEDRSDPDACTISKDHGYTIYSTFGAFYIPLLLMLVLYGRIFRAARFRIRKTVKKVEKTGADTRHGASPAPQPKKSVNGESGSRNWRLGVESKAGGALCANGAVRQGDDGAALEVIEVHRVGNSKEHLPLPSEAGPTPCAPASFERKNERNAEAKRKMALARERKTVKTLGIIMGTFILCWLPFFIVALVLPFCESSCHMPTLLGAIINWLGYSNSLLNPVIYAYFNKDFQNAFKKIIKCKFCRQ
Procedure: (§1) The PCR cloning of the human 5-HT1A receptor subtype from a human genomic library has been described previously by Chanda et al., Mol. Pharmacol., 43:516 (1993). A stable Chinese hamster ovary cell line expressing the human 5-HT1A receptor subtype (5-HT1A.CHO cells) was employed throughout this study. Cells were maintained in DMEM supplemented with 10% fetal calf serum, non-essential amino acids and penicillin/streptomycin.
Cells were grown to 95-100% confluency as a monolayer before membranes were harvested for binding studies. Cells were gently scraped from the culture plates, transferred to centrifuge tubes, and washed twice by centrifugation (2000 rpm for 10 min., 4° C.) in buffer (50 mM Tris; pH 7.5). The resulting pellets were aliquoted and maintained at -80° C. On the day of assay, the cells were thawed on ice, and resuspended in buffer. Studies were conducted using [^3 H]8-OH-DPAT as the radioligand. The binding assay was performed in 96 well microtiter plates in a final total volume of 250 μL of buffer. Comparison experiments were performed by using 7 concentrations of unlabelled drug and a final ligand concentration of 1.5 nM. Non-specific binding was determined in the presence of 10 μM 5HT. Saturation analysis was conducted by using [^3 H]8-OH-DPAT at concentrations ranging from 0.3-30 nM. Following a 30 minute incubation at room temperature, the reaction was terminated by the addition of ice cold buffer and rapid filtration using a M-96 Brandel Cell Harvester (Gaithersburg, Md.) through a GF/B filter presoaked for 30 minutes in 0.5% polyethyleneimine.

[2] = target: T2, 5-HT1A cloned receptor (Homo sapiens, UniProt P08908); experiment: [35S]-GTPγS binding assay, 5-HT1A cloned receptor membrane fragments; format: biochemical; conditions: maximum agonist response defined by excess 8-OH-DPAT; value in parentheses; read-out: GTPgS % EMax
T2 construct: expressed in transfected cells; host or cells: Chinese hamster ovary cells (5-HT1A.CHO)
T2 sequence (P08908 1-422): T1 sequence (P08908 1-422)
Description: as §1
The [^35 S]-GTPγS binding assay was similar to that used by Lazareno and Birdsall, Br. J. Pharmacol. 109:1120 (1993). Briefly, 5-HT1A cloned receptor membrane fragments (as used for 5-HT1A receptor binding assays) were stored at -70° C. When needed, membranes were rapidly thawed, centrifuged at 40,000×g for 10 minutes and resuspended at 4° C. for 10 minutes in assay buffer (25 mM HEPES, 3 mM MgCl2, 100 mM NaCl, 1 mM EDTA, 10 uM GDP, […], pH 8.0). These membranes were then incubated for 30 min at 30° C. with [^35 S]GTPgS (1 nM) in the presence of vehicle, test compound (one to eight concentrations), or excess 8-OH-DPAT to define maximum agronist response. All reactions were terminated by the addition of ice cold Tris buffer followed by rapid filtration using a Tom Tech® filtration device to separate bound from free [^35 S]GTPgS. Agonists produced an increase in the amount of [^35 S]GTPgS bound whereas antagonists produced no increase in binding. Bound radioactivity was counted and analyzed as above.

[3] = target: T3, serotonin transporter (Rattus norvegicus, UniProt P31652); experiment: affinity for the serotonin transporter (ST), 3H-paroxetine, rat frontal cortical membranes; format: binding, rat (male Sprague-Dawley); conditions: 3H-paroxetine 0.1 nM, 60 min, 25° C.
T3 construct: frontal cortical membranes prepared from male Sprague-Dawley rats; from tissue; host or cells: rat (male Sprague-Dawley) frontal cortex membranes
T3 sequence (P31652 whole entry): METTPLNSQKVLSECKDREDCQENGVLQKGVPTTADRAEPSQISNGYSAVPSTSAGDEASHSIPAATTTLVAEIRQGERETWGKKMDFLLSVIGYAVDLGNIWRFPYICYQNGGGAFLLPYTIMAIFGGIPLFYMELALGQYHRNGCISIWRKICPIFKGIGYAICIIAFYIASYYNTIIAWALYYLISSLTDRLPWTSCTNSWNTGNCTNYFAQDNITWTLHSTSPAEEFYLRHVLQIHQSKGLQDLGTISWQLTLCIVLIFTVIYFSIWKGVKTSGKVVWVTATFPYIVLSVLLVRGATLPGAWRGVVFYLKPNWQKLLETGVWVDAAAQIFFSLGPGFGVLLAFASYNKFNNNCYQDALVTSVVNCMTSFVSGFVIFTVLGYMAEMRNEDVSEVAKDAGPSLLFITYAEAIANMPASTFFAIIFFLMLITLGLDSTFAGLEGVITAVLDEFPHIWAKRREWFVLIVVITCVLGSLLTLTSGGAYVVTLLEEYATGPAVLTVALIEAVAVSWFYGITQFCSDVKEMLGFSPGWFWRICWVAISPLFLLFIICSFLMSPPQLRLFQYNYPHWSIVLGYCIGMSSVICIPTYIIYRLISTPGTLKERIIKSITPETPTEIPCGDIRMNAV
Procedure: A protocol similar to that used by Cheetham et al., Neuropharmacol., 32:737 (1993) was used to determine the affinity of compounds for the serotonin transporter. Briefly, frontal cortical membranes prepared from male Sprague-Dawley rats were incubated with ^3 H-parsoxetinc (0.1 nM) for 60 min at 25° C. All tubes also contained either vehicle, test compound (one to eight concentrations), or a saturating concentration of fluoxetine (10 μM) to define […]. All reactions were terminated by the addition of ice cold Tris buffer followed by rapid filtration using a Tom Tech filtration device to separate bound from free ^3 H-paroxetine. Bound radioactivity was quantitated using a Wallac 1205 Beta Plate® counter. Nonlinear regression analysis was used to determine IC50 values which were converted to Ki values using the method set forth in Cheng and Prusoff, Biochem. Pharmacol., 22:3099 (1973) ([…].

[4] = [3H]8-OH-DPAT, 1.5 nM, 5-HT1A.CHO membranes, read-out: 5-HT1A Ki

inhibition at 1 µM ([1]; [3H]8-OH-DPAT) [%]	Structure (SMILES)	pKi [1]	Emax [2] [%]	pKi [3]	pKi [1, 4]
26	COc1ccc2c(c1)CN([C@H]1CC[C@@H](c3c[nH]c4ccc(C#N)cc43)CC1)CC2 [Example 1a, 3-[(1,4-cis)-4-(7-Methoxy-3,4-dihydro-1H-isoquinolin-2-yl)-cyclohexyl]-1H-indole-5-carbonitrile]	–	–	–	–
48	COc1ccc2c(c1)CN([C@H]1CC[C@H](c3c[nH]c4ccc(C#N)cc43)CC1)CC2 [Example 1b, 3-[(1,4-trans)-4-(7-Methoxy-3,4-dihydro-1H-isoquinolin-2-yl)-cyclohexyl]-1H-indole-5-carbonitrile]	–	–	–	–
14	COc1cccc2c1CN([C@H]1CC[C@@H](c3c[nH]c4ccc(C#N)cc43)CC1)CC2 [Example 2a, 3-[(1,4-cis)-4-(8-Methoxy-3,4-dihydro-1H-isoquinolin-2-yl)-cyclohexyl]-1H-indole-5-carbonitrile]	–	–	–	–
46	COc1cccc2c1CN([C@H]1CC[C@H](c3c[nH]c4ccc(C#N)cc43)CC1)CC2 [Example 2b, 3-[(1,4-trans)-4-(8-Methoxy-3,4-dihydro-1H-isoquinolin-2-yl)-cyclohexyl]-1H-indole-5-carbonitrile]	–	–	–	–
21	COc1ccc2c(c1)CCN([C@H]1CC[C@@H](c3c[nH]c4ccc(C#N)cc43)CC1)C2 [Example 3a, 3-[(1,4-cis)-4-(6-Methoxy-3,4-dihydro-1H-isoquinolin-2-yl)-cyclohexyl]-1H-indole-5-carbonitrile]	–	–	–	–
–	COc1ccc2c(c1)CCN([C@H]1CC[C@H](c3c[nH]c4ccc(C#N)cc43)CC1)C2 [Example 3b, 3-[(1,4-trans)-4-(6-Methoxy-3,4-dihydro-1H-isoquinolin-2-yl)-cyclohexyl]-1H-indole-5-carbonitrile]	6.52	0	–	–
7	COc1cccc2c1CCN([C@H]1CC[C@@H](c3c[nH]c4ccc(C#N)cc43)CC1)C2 [Example 4a, 3-[(1,4-cis)-4-(5-Methoxy-3,4-dihydro-1H-isoquinolin-2-yl)-cyclohexyl]-1H-indole-5-carbonitrile]	–	12	–	–
47	COc1cccc2c1CCN([C@H]1CC[C@H](c3c[nH]c4ccc(C#N)cc43)CC1)C2 [Example 4b, 3-[(1,4-trans)-4-(5-Methoxy-3,4-dihydro-1H-isoquinolin-2-yl)-cyclohexyl]-1H-indole-5-carbonitrile]	–	33	–	–
10	N#Cc1ccc2[nH]cc([C@H]3CC[C@H](N4CCc5ccccc5C4)CC3)c2c1 [Example 5b, 3-[(1,4-trans)-4-(3,4-Dihydro-1H-isoquinolin-2-yl)-cyclohexyl]-1H-indole-carbonitrile]	–	–	–	–
–	COc1cccc2c1CCN(CCCc1c[nH]c3ccc(F)cc13)C2 [Example 6, 2-[3-(5-Fluoro-1H-indol-3-yl)-propyl]-5-methoxy-1,2,3,4-tetrahydroisoquinoline]	–	23	8.72	6.61
–	COc1ccc2c(c1)CCN(CCCc1c[nH]c3ccc(F)cc13)C2 [Example 7, 2-[3-(5-Fluoro-1H-indol-3-yl)-propyl]-6-methoxy-1,2,3,4-tetrahydroisoquinoline]	–	100	8.85	6.54

Structure (SMILES)	inhibition at 1 µM ([1]; [3H]8-OH-DPAT) [%]	pKi [1]	Emax [2] [%]	pKi [3]	pKi [1, 4]
N#Cc1ccc2[nH]cc([C@H]3CC[C@@H](N4CCc5ccccc5C4)CC3)c2c1 [Example 5a, 3-[(1,4-cis)-4-(3,4-Dihydro-1H-isoquinolin-2-yl)-cyclohexyl]-1H-indole-5-carbonitrile]	0	–	–	8.89	–
Fc1ccc2[nH]cc(CCCN3CCc4ccccc4C3)c2c1 [Example 8, 2-[3-(5-Fluoro-1H-indol-3-yl)-propyl]-1,2,3,4-tertrahydroisoquinoline]	48	–	13	8.31	–
